Test results from patent publication US11946094B2, “Combination therapies and methods of use thereof” (Augusta University Research Institute, Inc., priority 2017, dated 2024).
Structures can show the parent of a compound that is named as a salt.

Tested on: OVCAR-8 cells
Test: Drug-siRNA combination screen: 346-compound anticancer library at 100 nM, CCK-8 viability
Conditions: OVCAR-8; for Score (sum of observed SD values for 18 genes): drug 100 nM plus siRNA knockdown of each of 18 genes, distance VAB−VA×VB in SD, single gene contributes at most +5 / −5, negative = synergy, positive = antagonism
Experimental: Comparisons of drug effect were performed using data generated on the same day. A minimum of two replicates was performed with drug library screening and a minimum of three replicates was done for all other tests.
Combinatorial effects were classified using two measures of combinatorial action: 1) the coefficient of drug interaction (CDI), defined as (VAB/(VA×VB)) and 2) the distance in standard deviation (SD) of VAB−(VA×VB). […] In confirmation studies significance was determined using a Student's T-test (two-tailed, unpaired) with p<0.05 indicating significance.
To measure the effect of a gene on drug effect, comparisons were made between high expressers of each gene and the wild type cells exposed to sham reagents.
In theory, CDI<1 is indicative of synergy while CDI>1 is indicative of antagonism or additive effect in a multiplicative model.

| SMILES | Score (sum of observed SD values for 18 genes) [SD] | synergy / antagonism of drug with gene knockdowns, in words (drug 100 nM, panel of 18 siRNA knockdowns) |
| --- | --- | --- |
| CCCC(CCC)C(=O)[O-].[Na+] [Sodium valproate] | −17.88 | – |
| CN1CCN(c2nc(C3=C(c4c[nH]c5ccccc45)C(=O)NC3=O)c3ccccc3n2)CC1 [Sotrastaurin] | −16.11 | – |
| COc1cc(N2CCC(N3CCN(C)CC3)CC2)ccc1Nc1ncc(Cl)c(Nc2ccccc2S(=O)(=O)C(C)C)n1 [TAE684] | −35.61 | – |
| Cn1c(=O)c(F)c(Nc2ccc(I)cc2F)c2c(=O)n(C[C@@H](O)CO)cnc21 [TAK-733] | −40.08 | – |
| NC(=O)Nc1sc(-c2ccc(F)cc2)cc1C(N)=O [TPCA-1] | 4.7 | – |
| CC(C)c1ccccc1Cc1cc(C(=O)Nc2ccc(S(=O)(=O)c3ccccc3C(C)(C)C)cc2)c(O)c(O)c1O [TW-37] | −36.72 | – |
| COc1cc2c(N3CCN(C(=O)Nc4ccc(OC(C)C)cc4)CC3)ncnc2cc1OCCCN1CCCCC1 [Tandutinib] | −14.99 | – |
| CNC(=O)c1cc(COc2nnc(Nc3ccc(Cl)cc3)c3ccoc23)ccn1 [Telatinib] | −5.24 | – |
| CO[C@H]1C[C@@H]2CC[C@@H](C)[C@@](O)(O2)C(=O)C(=O)N2CCCC[C@H]2C(=O)O[C@H]([C@H](C)C[C@@H]2CC[C@@H](OC(=O)C(C)(CO)CO)[C@H](OC)C2)CC(=O)[C@H](C)/C=C(\C)[C@@H](O)[C@@H](OC)C(=O)[C@H](C)C[C@H](C)/C=C/C=C/C=C/1C [Temsirolimus] | -56.85 | – |
| COc1cc2nccc(Oc3ccc(NC(=O)Nc4cc(C)on4)c(Cl)c3)c2cc1OC [Tivozanib] | −16.34 | – |
| C[C@@H]1CCN(C(=O)CC#N)C[C@@H]1N(C)c1ncnc2[nH]ccc12 [Tofacitinib] | −13.15 | – |
| CN(C)CCOc1ccc(/C(=C(/CCCl)c2ccccc2)c2ccccc2)cc1 [Toremifene Citrate] | −22.88 | – |
| CCC(=O)N1CCN(c2ccc(-n3c(=O)ccc4cnc5ccc(-c6cnc7ccccc7c6)cc5c43)cc2C(F)(F)F)CC1 [Torin 1] | −32.55 | – |
| Nc1ccc(-c2ccc3ncc4ccc(=O)n(-c5cccc(C(F)(F)F)c5)c4c3c2)cn1 [Torin 2] | −37.17 | – |
| CC(C)C[C@@H](C(=O)N[C@H](C(=O)OC1CCCC1)c1ccccc1)[C@H](O)C(=O)NO [Tosedostat] | 5.66 | – |
| Cc1cc(Nc2cc(N3CCN(C)CC3)nc(Sc3ccc(NC(=O)C4CC4)cc3)n2)[nH]n1 [Tozasertib] | −4.08 | – |
| CC(=O)Nc1cccc(-n2c(=O)n(C3CC3)c(=O)c3c(Nc4ccc(I)cc4F)n(C)c(=O)c(C)c32)c1 [Trametinib] | −27.77 | – |
| C[C@]12C=CC(=O)C=C1CC[C@H]1[C@@H]3C[C@@H](O)[C@](O)(C(=O)CO)[C@@]3(C)C[C@H](O)[C@@]12F [Triamcinolone] | −26.66 | – |
| CC(/C=C/C(=O)NO)=C\[C@@H](C)C(=O)c1ccc(N(C)C)cc1 [Trichostatin A] | −38.93 | mostly synergistic |
| CC(C)[C@]12O[C@H]1[C@@H]1O[C@]13[C@]1(O[C@H]1C[C@H]1C4=C(CC[C@@]13C)C(=O)OC4)[C@@H]2O [Triptolide] | −15.95 | – |
| CC(C)C[C@H](NC(=O)[C@@H](O)[C@H](N)Cc1ccccc1)C(=O)O [Ubinimex] | −17.36 | – |
| Cc1ccc2c(=O)c3cccc(CC(=O)O)c3oc2c1C [Vadimezan] | −28.75 | – |
